System: LXRα and/or LXRβ
Test: Co-transfection assay (LXRE luciferase reporter, CV-1 cells)
Assay type: cell-based, human
Settings: tested as described in Example 33; IC50 or EC50 for LXRα and/or LXRβ, isoform not specified; read-out: activity (IC50 or EC50 for LXR)
In short: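 Luciferase signal measures LXR-RXR transcriptional activation in transiently transfected CV-1 cells carrying human LXRα or LXRβ, RXRα and a single-copy LXRE reporter. Cells were exposed to compound for 20 h at 37 °C with at most 1% DMSO, using 10 μM final for screening. Potency was derived from 4-parameter fits of 8-point, half-log dose curves averaged over ≥3 runs, and efficacy was expressed as % of a reference agonist.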

SMILES	IC50 or EC50 (potency, activation or inhibition) [nM]
CC(C)(O)c1cn(-c2ccc(-c3cccc(S(C)(=O)=O)c3)cc2Cl)c(C(C)(C)c2cccc(Cl)c2Cl)n1 [Example 451, 2-(1-(3-chloro-3′-(methyl-sulfonyl)biphenyl-4-yl)-2-(2-(2,3-dichlorophenyl)propan-2-yl)-1H-imidazol-4-yl)propan-2-ol]	< 1000
CCS(=O)(=O)c1cccc(-c2ccc(-n3cc(C(C)(C)O)nc3C(C)(C)c3cccc(Cl)c3Cl)c(Cl)c2)c1 [Example 452, 2-(1-(3-chloro-3′-(ethyl-sulfonyl)biphenyl-4-yl)-2-(2-(2,3-dichlorophenyl)propan-2-yl)-1H-imidazol-4-yl)propan-2-ol]	< 1000
CS(=O)(=O)c1cccc(-c2ccc(-n3cc(C(=O)NCC(F)(F)F)nc3-c3c(Cl)cccc3Cl)c(Cl)c2)c1 [Example 459, 1-(3-chloro-3′-(methyl-sulfonyl)biphenyl-4-yl)-2-(2,6-dichlorophenyl)-N-(2,2,2-trifluoro-ethyl)-1H-imidazole-4-carboxamide]	< 1000
CS(=O)(=O)c1cccc(-c2ccc(-n3cc(C(=O)NCCF)nc3-c3c(Cl)cccc3Cl)c(Cl)c2)c1 [Example 460, 1-(3-chloro-3′-(methyl-sulfonyl)biphenyl-4-yl)-2-(2,6-dichlorophenyl)-N-(2-fluoroethyl)-1H-imidazole-4-carboxamide]	< 1000
CS(=O)(=O)c1cccc(-c2ccc(-n3cc(C(=O)NCC(=O)O)nc3-c3c(Cl)cccc3Cl)c(Cl)c2)c1 [Example 461, 2-(1-(3-chloro-3′-(methyl-sulfonyl)biphenyl-4-yl)-2-(2,6-dichlorophenyl)-1H-imidazole-4-carboxamido)acetic acid]	> 10000
CCS(=O)(=O)c1cccc(-c2ccc(-n3cc(C(=O)NCC(F)(F)F)nc3-c3c(Cl)cccc3Cl)c(Cl)c2)c1 [Example 462, 1-(3-chloro-3′-(ethylsulfonyl)biphenyl-4-yl)-2-(2,6-dichlorophenyl)-N-(2,2,2-trifluoroethyl)-1H-imidazole-4-carboxamide]	< 1000
CC(C)(CO)NC(=O)c1cn(-c2ccc(-c3cccc(S(C)(=O)=O)c3)cc2Cl)c(-c2c(Cl)cccc2Cl)n1 [Example 463, 1-(3-chloro-3′-(methylsulfonyl)biphenyl-4-yl)-2-(2,6-dichlorophenyl)-N-(1-hydroxy-2-methylpropan-2-yl)-1H-imidazole-4-carboxamide]	< 1000
CCS(=O)(=O)c1cccc(-c2ccc(-n3cc(C(=O)NC(C)(C)CO)nc3-c3c(Cl)cccc3Cl)c(Cl)c2)c1 [Example 464, 1-(3-chloro-3′-(ethylsulfonyl)biphenyl-4-yl)-2-(2,6-dichlorophenyl)-N-(1-hydroxy-2-methylpropan-2-yl)-1H-imidazole-4-carboxamide]	< 1000
CC(C)(C)NC(=O)c1cn(-c2ccc(-c3cccc(S(C)(=O)=O)c3)cc2Cl)c(-c2c(Cl)cccc2Cl)n1 [Example 465, N-tert-butyl-1-(3-chloro-3′-(methylsulfonyl)biphenyl-4-yl)-2-(2,6-dichlorophenyl)-1H-imidazole-4-carboxamide]	< 1000
CC(C)(O)c1cn(-c2ccc(-c3cc(S(C)(=O)=O)ccc3Cl)cc2Cl)c(-c2c(Cl)cccc2Cl)n1 [Example 467, 2-(1-(2′,3-dichloro-5′-(methyl-sulfonyl)biphenyl-4-yl)-2-(2,6-dichlorophenyl)-1H-imidazol-4-yl)propan-2-ol]	< 1000
CS(=O)(=O)c1cccc(-c2ccc(-n3cc(C(=O)NCCO)nc3-c3c(Cl)cccc3Cl)c(Cl)c2)c1 [Example 470, 1-(3-chloro-3′-(methylsulfonyl)biphenyl-4-yl)-2-(2,6-dichlorophenyl)-N-(2-hydroxyethyl)-1H-imidazole-4-carboxamide]	< 1000
CCS(=O)(=O)c1cccc(-c2ccc(-n3cc(C(=O)NCCO)nc3-c3c(Cl)cccc3Cl)c(Cl)c2)c1 [Example 471, 1-(3-chloro-3′-(ethylsulfonyl)biphenyl-4-yl)-2-(2,6-dichlorophenyl)-N-(2-hydroxyethyl)-1H-imidazole-4-carboxamide]	< 1000
CC(C)(O)CNC(=O)c1cn(-c2ccc(-c3cccc(S(C)(=O)=O)c3)cc2Cl)c(-c2c(Cl)cccc2Cl)n1 [Example 472, 1-(3-chloro-3′-(methylsulfonyl)biphenyl-4-yl)-2-(2,6-dichlorophenyl)-N-(2-hydroxy-2-methylpropyl)-1H-imidazole-4-carboxamide]	< 1000
CCS(=O)(=O)c1cccc(-c2ccc(-n3cc(C(=O)NCC(C)(C)O)nc3-c3c(Cl)cccc3Cl)c(Cl)c2)c1 [Example 473, 1-(3-chloro-3′-(ethylsulfonyl)biphenyl-4-yl)-2-(2,6-dichlorophenyl)-N-(2-hydroxy-2-methylpropyl)-1H-imidazole-4-carboxamide]	< 1000

Continued, values first:

IC50 or EC50 (potency, activation or inhibition) [nM]	SMILES
< 1000	CCS(=O)(=O)c1cccc(-c2ccc(-n3cc(C(C)(C)O)nc3Cc3cccc(Cl)c3Cl)c(F)c2)c1 [Example 450, 2-(2-(2,3-dichlorobenzyl)-1-(3′-(ethylsulfonyl)-3-fluorobiphenyl-4-yl)-1H-imidazol-4-yl)propan-2-ol]
1000 to 10000	CC(C)(O)c1cn(-c2ccc(-c3ccc(C(N)=O)c(S(C)(=O)=O)c3)cc2Cl)c(-c2c(F)cccc2Cl)n1 [Example 453]
1000 to 10000	COc1ccc(-c2ccc(-n3cc(C(C)(C)O)nc3-c3c(F)cccc3Cl)c(Cl)c2)cc1S(C)(=O)=O [Example 454, 2-(1-(3-chloro-4′-methoxy-3′-(methylsulfonyl)biphenyl-4-yl)-2-(2-chloro-6-fluorophenyl)-1H-imidazol-4-yl)propan-2-ol]
< 1000	COc1ccc(-c2ccc(-n3cc(C(C)(C)O)nc3-c3cccc(Cl)c3Cl)cc2)cc1S(C)(=O)=O [Example 455, 2-(2-(2,3-dichlorophenyl)-1-(4′-methoxy-3′-(methylsulfonyl)biphenyl-4-yl)-1H-imidazol-4-yl)propan-2-ol]
< 1000	COc1ccc(-c2ccc(-n3cc(C(C)(C)O)nc3Cc3cccc(Cl)c3Cl)c(C)c2)cc1S(C)(=O)=O [Example 456, 2-(2-(2,3-dichlorobenzyl)-1-(4′-methoxy-3-methyl-3′-(methyl-sulfonyl)biphenyl-4-yl)-1H-imidazol-4-yl)propan-2-ol]
< 1000	COc1ccc(-c2ccc(-n3cc(C(C)(C)O)nc3Cc3cccc(Cl)c3Cl)c(Cl)c2)cc1S(C)(=O)=O [Example 457, 2-(1-(3-chloro-4′-methoxy-3′-(methyl-sulfonyl)biphenyl-4-yl)-2-(2,3-dichlorobenzyl)-1H-imidazol-4-yl)propan-2-ol]
1000 to 10000	CC(C)(O)c1cn(-c2ccc(-c3cccc(S(C)(=O)=O)c3)cc2)c(-c2c(Cl)cccc2-c2cccc(S(C)(=O)=O)c2)n1 [Example 458, 2-(2-(3-chloro-3′-(methyl-sulfonyl)biphenyl-2-yl)-1-(3′-(methylsulfonyl)biphenyl-4-yl)-1H-imidazol-4-yl)propan-2-ol]
> 10000	Cc1cc(-c2ccc(C(=O)O)cc2Cl)ccc1-n1cc(C(C)(C)O)nc1-c1c(Cl)cccc1Cl [Example 466, 2-chloro-4′-(2-(2,6-dichlorophenyl)-4-(2-hydroxypropan-2-yl)-1H-imidazol-1-yl)-3′-methylbiphenyl-4-carboxylic acid]
< 1000	Cc1cc(-c2cc(S(C)(=O)=O)ccc2Cl)ccc1-n1cc(C(C)(C)O)nc1Cc1cccc(Cl)c1Cl [Example 468, 2-(1-(2′-chloro-3-methyl-5′-(methylsulfonyl)biphenyl-4-yl)-2-(2,3-dichlorobenzyl)-1H-imidazol-4-yl)propan-2-ol]
1000 to 10000	CC(C)(O)c1cn(-c2ccc(-c3ccc4c(c3)S(=O)(=O)CC4O)cc2Cl)c(-c2c(F)cccc2Cl)n1 (centres unmarked) [Example 469, 6-{3-chloro-4-[2-(2-chloro-6-fluorophenyl)-4-(1-hydroxy-1-methylethyl)-1H-imidazol-1-yl]phenyl}-2,3-dihydro-1-benzo-thiophene-3-ol 1,1-dioxide]
< 1000	CC(C)(O)c1cn(-c2ccc(-c3cccc(S(C)(=O)=O)c3)cc2)c(Cc2cc(Cl)ccc2F)n1 [Example 474, 2-(2-(5-chloro-2-fluorobenzyl)-1-(3′-(methylsulfonyl)biphenyl-4-yl)-1H-imidazol-4-yl)propan-2-ol]
1000 to 10000	CC(C)(O)c1cn(-c2ccc(-c3ccc(CO)cc3)cc2)c(-c2cccc(Cl)c2Cl)n1 [Example 475, 2-(2-(2,3-dichlorophenyl)-1-(4′-(hydroxymethyl)biphenyl-4-yl)-1H-imidazol-4-yl)propan-2-ol]
1000 to 10000	CC(C)(O)c1cn(-c2ccc(-c3cccc(CO)c3)cc2)c(-c2cccc(Cl)c2Cl)n1 [Example 476, 2-(2-(2,3-dichlorophenyl)-1-(3′-(hydroxymethyl)biphenyl-4-yl)-1H-imidazol-4-yl)propan-2-ol]
1000 to 10000	CC(C)(O)c1ccc(-c2ccc(-n3cc(C(C)(C)O)nc3-c3cccc(Cl)c3Cl)cc2)cc1 [Example 477, 2-(2-(2,3-dichlorophenyl)-1-(4′-(2-hydroxypropan-2-yl)biphenyl-4-yl)-1H-imidazol-4-yl)propan-2-ol]
< 1000	CC(C)(CO)c1cn(-c2ccc(-c3cccc(S(C)(=O)=O)c3)cc2)c(-c2c(Cl)cccc2Cl)n1 [Example 479, 2-(2-(2,6-dichlorophenyl)-1-(3′-(methylsulfonyl)biphenyl-4-yl)-1H-imidazol-4-yl)-2-methylpropan-1-ol]

— patent publication US9000022B2 (Exelixis Patent Company LLC, priority 2005, dated 2015)
